Laboratory results as given in article PMC5572576 (The Lancet. Oncology, 2017).
Values joined by “and” are separate entries in the source; they are usually repeats but may differ in a detail not shown here. Equal entries are not always repeated.

Assays:
[1] = system: c-Kit; conditions: cell-based assays; cited from earlier work
[2] = target: leukocyte receptor tyrosine kinase (LTK); conditions: panel of 78 kinases; cited from earlier work
[3] = target: AXL; conditions: panel of 78 kinases; cited from earlier work
[4] = target: anaplastic lymphoma kinase (ALK); conditions: panel of 78 kinases; cited from earlier work
[5] = Plasma pharmacokinetics after oral once-daily dosing; assay type: in vivo, human; conditions: oral daily dosing 20–450 mg
[6] = system: FLT3-ITD receptors in Molm14 cells; test: Ex vivo FLT3 plasma inhibitory activity; assay type: cell-based; conditions: by Day 8, majority of patients receiving ≥80 mg
[7] = system: patients with R/R AML; test: Phase 1/2 study, antileukemic response; assay type: in vivo, human; conditions: for Median overall survival / Median response duration: (95% CI)
[8] = FLT3mut+ receiving ≥80mg/d (n=169)

CCc1nc(C(N)=O)c(Nc2ccc(N3CCC(N4CCN(C)CC4)CC3)c(OC)c2)nc1NC1CCOCC1 [gilteritinib]
IC50 [1]: 102 nM | kinase inhibition [2]: strong inhibitor | kinase inhibition [3]: strong inhibitor | kinase inhibition [4]: strong inhibitor | Steady state plasma levels reached [5]: 15 treatment Day | FLT3 phosphorylation inhibition [6]: ≥ 90% | CRc ([7]; FAS (n=249)): 75 (30% [25, 36]) n (% [95% CI]) | ORR ([7]; FAS (n=249)): 100 (40% [34, 47]) n (% [95% CI]) | Median overall survival ([7]; FAS (n=249)): 25 (20, 30) weeks | Median response duration ([7]; FAS (n=249)): 17 (14, 29) weeks | CRc ([7]; FLT3WT (n=58)): 5 (9% [3, 19]) n (% [95% CI]) | Median overall survival ([7]; FLT3WT (n=58)): 17 (11, 21) weeks | Median response duration ([7]; FLT3WT (n=58)): 12 (3, 17) weeks | CR ([7]; FLT3mut+ all patients (n=191)): 18 (9% [6, 15]) n (% [95% CI]) | CRc ([7]; FLT3mut+ all patients (n=191)): 70 (37% [30, 44]) n (% [95% CI]) | CRi ([7]; FLT3mut+ all patients (n=191)): 42 (22% [16, 29]) n (% [95% CI]) | CRp ([7]; FLT3mut+ all patients (n=191)): 10 (5% [3, 9]) n (% [95% CI]) | ORR ([7]; FLT3mut+ all patients (n=191)): 93 (49% [41, 56]) n (% [95% CI]) | PR ([7]; FLT3mut+ all patients (n=191)): 23 (12% [8, 18]) n (% [95% CI]) | Median overall survival ([7]; FLT3mut+ all patients (n=191)): 30 (23, 33) weeks | Median response duration ([7]; FLT3mut+ all patients (n=191)): 20 weeks and 20 (14, 33) weeks | Transplant rate ([7]; FLT3mut+ receiving ≥80 mg/d): 19% | CR [7, 8]: 18 (11% [6, 16]) n (% [95% CI]) | CRi [7, 8]: 41 (24% [18, 31]) n (% [95% CI]) | CRp [7, 8]: 10 (6% [3, 11]) n (% [95% CI]) | ORR [7, 8]: 88 (52% [44, 60]) n (% [95% CI]) | PR [7, 8]: 19 (11% [7, 17]) n (% [95% CI]) | Median overall survival [7, 8]: 31 weeks and 31 (24, 59) weeks | Median response duration [7, 8]: 20 weeks and 20 (14, 33) weeks | Median OS ([7]; FLT3mut+ responders who underwent HSCT (n=32)): 47 weeks | Transplant rate ([7]; FLT3mut+ who achieved PR or better): 34% | Transplant rate ([7]; FLT3mut+ with CRc and no prior transplant (n=47)): 47% | Transplant rate ([7]; entire FLT3mut+ population): 19%
